Target: T1, IKB kinase B (Homo sapiens, UniProt O14920)
T1 sequence (O14920 1-756): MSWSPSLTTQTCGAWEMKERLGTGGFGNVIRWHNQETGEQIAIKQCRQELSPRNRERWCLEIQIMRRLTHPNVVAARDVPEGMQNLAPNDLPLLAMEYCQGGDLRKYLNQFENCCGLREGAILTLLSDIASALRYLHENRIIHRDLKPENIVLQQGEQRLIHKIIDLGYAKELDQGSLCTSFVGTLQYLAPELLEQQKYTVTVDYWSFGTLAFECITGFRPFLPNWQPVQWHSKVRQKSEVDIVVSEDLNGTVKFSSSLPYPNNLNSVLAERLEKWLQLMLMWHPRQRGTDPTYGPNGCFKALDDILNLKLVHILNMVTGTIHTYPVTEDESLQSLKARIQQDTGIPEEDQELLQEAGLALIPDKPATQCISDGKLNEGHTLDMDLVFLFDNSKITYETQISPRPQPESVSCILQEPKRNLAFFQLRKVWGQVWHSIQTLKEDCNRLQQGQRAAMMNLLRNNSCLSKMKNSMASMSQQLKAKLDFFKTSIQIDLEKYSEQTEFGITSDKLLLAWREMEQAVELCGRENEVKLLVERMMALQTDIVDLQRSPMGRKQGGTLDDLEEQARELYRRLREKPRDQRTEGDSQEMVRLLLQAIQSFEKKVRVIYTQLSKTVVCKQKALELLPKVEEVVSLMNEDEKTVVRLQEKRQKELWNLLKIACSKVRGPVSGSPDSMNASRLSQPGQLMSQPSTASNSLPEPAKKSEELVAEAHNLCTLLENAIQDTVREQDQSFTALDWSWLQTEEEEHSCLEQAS
Assay: IKB kinase inhibition
Assay type: biochemical
Conditions: for %inh: IκB

In the case of `CC(=O)c1ccc(NC(=O)c2sc3nc(C)c4c(c3c2N)CC(C)(O)C(C(C)=O)C4c2ccc(N(C)C)cc2)cc1` (stereo not drawn) [Compound 8d, 7-Acetyl-N-(4-acetylphenyl)-1-amino-5,8-dimethyl-8-hydroxy-6-(4-N,N-dimethylaminophenyl)-6,7,8,9-tetrahydrothieno[2,3-c]isoquinoline-2-carboxamide], the “%inh” value (conc 0.01 (log -2)) is reported as 21.8%, the “%inh” value (conc 0.1 (log -1)) is reported as 42.3% and the “%inh” value (conc 1 (log 0)) is reported as 63.9%. For the same molecule, the “%inh” value (conc 10 (log 1)) was 86.4%, the “%inh” value (conc 100 (log 2)) was 93.7% and the IC50 (read-out: IKB kinase B (IC50 ± SD)) was 240 ± 13 nM.

Reference: article PMC10873978, “Novel tetrahydroisoquinolines as DHFR and CDK2 inhibitors: synthesis, characterization, anticancer activity and antioxidant properties” (BMC Chemistry, 2024)
